# Values of other authors, collected in PubChem BioAssay AID1259409 (Chemical Carcinogenesis Research Information System (CCRIS), 2018).
# Tested on: rodent chemically induced tumor inhibition, incidence and multiplicity
# Experiment: CCRIS tumor inhibitor studies
compound,measurement,setting,value
Cc1c(C)c2c(c(C)c1O)CC[C@@](C)(CCC[C@H](C)CCC[C@H](C)CCCC(C)C)O2,"tumour outcome (control, treated, inhibition, significance)","Carcinogen: 7,12-DIMETHYLBENZ[A]ANTHRACENE, 57-97-6, Dose [Inhibitor]: 0.2% IN HIGH SATURATED FAT DIET DAILY STARTING 29 D BEFORE CARCINOGEN TREATMENT AND CONTINUING FOR DURATION OF STUDY (ST, Route [Inhibitor]: ORAL, Species: RAT, Strain/Sex: SPRAGUE-DAWLEY/FEMALE, Target Tissue: Type of Lesion: MAMMARY GLAND: ADENOCARCINOMA, Dose [Carcinogen]: 10 MG IN 1 ML STRIPPED CORN OIL ONCE AT 50 D OF AGE, Promoter: NONE USED","65%, 65%, 0%, not calculated"
same,"tumour outcome (control, treated, inhibition, significance)","Carcinogen: 7,12-DIMETHYLBENZ[A]ANTHRACENE, 57-97-6, Dose [Inhibitor]: 0.2% IN LOW FAT DIET DAILY STARTING 29 D BEFORE CARCINOGEN TREATMENT AND CONTINUING FOR DURATION OF STUDY (STUDY DURATIO, Route [Inhibitor]: ORAL, Species: RAT, Strain/Sex: SPRAGUE-DAWLEY/FEMALE, Target Tissue: Type of Lesion: MAMMARY GLAND: ADENOCARCINOMA, Dose [Carcinogen]: 10 MG IN 1 ML STRIPPED CORN OIL ONCE AT 50 D OF AGE, Promoter: NONE USED","35%, 35%, 0%, not calculated"
same,"tumour outcome (control, treated, inhibition, significance)","Carcinogen: 7,12-DIMETHYLBENZ[A]ANTHRACENE, 57-97-6, Dose [Inhibitor]: 0.2% IN LOW FAT DIET THROUGHOUT THE EXPERIMENT, (STUDY DURATION: 32 WK), Route [Inhibitor]: ORAL, Species: RAT, Strain/Sex: SPRAGUE-DAWLEY/FEMALE, Target Tissue: Type of Lesion: MAMMARY GLAND: PARENCHYMAL CELL CARCINOMA, Dose [Carcinogen]: 10 MG IN 1 ML CORN OIL AT 50 D OF AGE ONCE, Promoter: NONE USED","37%, 32%, 14%, not calculated"
same,"tumour outcome (control, treated, inhibition, significance)","Carcinogen: 7,12-DIMETHYLBENZ[A]ANTHRACENE, 57-97-6, Dose [Inhibitor]: 0.2% IN SATURATED FAT DIET THROUGHOUT THE EXPERIMENT, (STUDY DURATION: 32 WK), Route [Inhibitor]: ORAL, Species: RAT, Strain/Sex: SPRAGUE-DAWLEY/FEMALE, Target Tissue: Type of Lesion: MAMMARY GLAND: PARENCHYMAL CELL CARCINOMA, Dose [Carcinogen]: 10 MG IN 1 ML CORN OIL AT 50 D OF AGE ONCE, Promoter: NONE USED","67%, 65%, 3%, not calculated"
same,"tumour outcome (control, treated, inhibition, significance)","Carcinogen: 7,12-DIMETHYLBENZ[A]ANTHRACENE, 57-97-6, Dose [Inhibitor]: 43 UG IN 80 µL ACETONE ONCE APPLIED ON BACK 5 MIN PRIOR TO CARCINOGEN DOSE (STUDY DURATION: 4 MO), Route [Inhibitor]: DERMAL, Species: MOUSE, Strain/Sex: ICR/FEMALE, Target Tissue: Type of Lesion: SKIN: TUMOR, Dose [Carcinogen]: 25 UG IN 80 µL ACETONE APPLIED ON BACK, Promoter: CROTON OIL, 8001-28-3","29/30 (97%), 27/30 (90%), 7%, not significant"
same,"tumour outcome (control, treated, inhibition, significance)","Carcinogen: 7,12-DIMETHYLBENZ[A]ANTHRACENE;57-97-6, Dose [Inhibitor]: 200 MG IN 1 ML OLIVE OIL ONCE 1 HR PRIOR TO CARCINOGEN DOSE(STUDY DURATION: 18 WK), Route [Inhibitor]: GAVAGE, Species: RAT, Strain/Sex: SPRAGUE-DAWLEY/FEMALE, Target Tissue: Type of Lesion: MAMMARY GLAND: TUMOR, Dose [Carcinogen]: 12 MG IN 1 ML OLIVE OIL ADMINISTERED 1 HR AFTER INHIBITOR, Promoter: NONE USED","27/34 (80%), 10/18 (56%), 30%, not significant"
same,"tumour outcome (control, treated, inhibition, significance)","Carcinogen: 7,12-DIMETHYLBENZ[A]ANTHRACENE, 57-97-6, Dose [Inhibitor]: 1000 UG APPLIED ONCE 5 MIN PRIOR TO CARCINOGEN DOSE (STUDY DURATION: 28 WK), Route [Inhibitor]: DERMAL, Species: MOUSE, Strain/Sex: CD-1/FEMALE, Target Tissue: Type of Lesion: SKIN: PAPILLOMA, Dose [Carcinogen]: 2.56 UG APPLIED ONCE 5 MIN AFTER INHIBITOR, Promoter: 12-O-TETRADECANOYLPHORBOL-13-ACETATE, 16561-29-8","82%, 68%, 17%, not calculated"
same,"tumour outcome (control, treated, inhibition, significance)","Carcinogen: METHYL(ACETOXYMETHYL)NITROSAMINE, 56856-83-8, Dose [Inhibitor]: 0, 5.8 NMOL IN DRINKING WATER BEGINNING 2 WK PRIOR TO CARCINOGEN AND CONTINUED FOR STUDY DURATION, (STUDY DURATION: 13 M, Dose [Inhibitor]: 0, 5.8 NMOL IN DRINKING WATER BEGINNING 2 WK PRIOR TO CARCINOGEN AND CONTINUED FOR STUDY DURATION, (STUDY DURATION: 13 M, Route [Inhibitor]: ORAL, Species: HAMSTER, Strain/Sex: SYRIAN/FEMALE, Target Tissue: Type of Lesion: ORAL CAVITY: TUMOR, Dose [Carcinogen]: 2 MG/KG BW IN DISTILLED WATER TO RIGHT CHEEK POUCH 2/MO FOR 6 MO (TOTAL DOSE 24 MG/KG), Promoter: NONE USED","14/15 (93%), 1/15 (7%), 92%, p<0.001"
same,"tumour outcome (control, treated, inhibition, significance)","Carcinogen: N-BIS(2-HYDROXYPROPYL)NITROSAMINE, 53609-64-6, Dose [Inhibitor]: 0, 1% IN DIET FOR 30 WK BEGINNING POST CARCINOGEN TREATMENT (STUDY DURATION: 32 WK), Route [Inhibitor]: ORAL, Species: RAT, Strain/Sex: F344/MALE, Target Tissue: Type of Lesion: BLADDER: ADENOMA, Dose [Carcinogen]: 0.1% IN DRINKING WATER FOR 2 WK, Promoter: NONE USED","5%, 15%, -200%, not calculated"
same,"tumour outcome (control, treated, inhibition, significance)","Carcinogen: N-BIS(2-HYDROXYPROPYL)NITROSAMINE, 53609-64-6, Dose [Inhibitor]: 0, 1% IN DIET FOR 30 WK BEGINNING POST CARCINOGEN TREATMENT (STUDY DURATION: 32 WK), Route [Inhibitor]: ORAL, Species: RAT, Strain/Sex: F344/MALE, Target Tissue: Type of Lesion: KIDNEY: TUMOR, Dose [Carcinogen]: 0.1% IN DRINKING WATER FOR 2 WK, Promoter: NONE USED","10%, 20%, -100%, not calculated"
